Where “and” joins values, the source holds several entries; their conditions need not be identical. Equal values may be shown once.
Assay: Pharmacokinetic evaluation of liquid bevirimat dosage forms, oral gavage, male Cynomolgus monkeys
Method: Six male Cynomolgus monkeys having an initial body weight of about 3.5 to about 4.5 kg are allowed 7 days to acclimate to their individual housing units. Monkeys are supplied with water and a commercial diet ad libitum prior to the study initiation. Food is withheld from the monkeys for a minimum of twelve hours before the study and during the study until four hours postdose when food is returned. Water is supplied ad libitum.
Test formulations are administered to the monkeys at time 0 on appropriate days. Test formulations will be dosed orally via oral gavage or intravenously.
Samples are drawn at the frequencies indicated below. Each blood sample (0.5 mL) is collected from the monkey's saphenous vein via a butterfly catheter and placed into a chilled polypropylene tube containing sodium heparin as the anticoagulant. Blood samples are centrifuged at a temperature of 4° C. at a speed of 3,000 rpm for 15 minutes. All samples are maintained chilled throughout processing. Plasma is collected after centrifugation, pipetted into a 2-mL polypropylene microtube, and frozen on dry-ice pending analytical evaluation.

[1] = 12.5 mg FAE/mL in 10% HPβCD, 50 mg FAE/monkey oral gavage, monkeys 186,116,120,AVG
[2] = 12.5 mg FAE/mL in 15% EtOH:0.5% TPGS:15% PG:5% Glycerin, 0.2% Povidone K90, 50 mg FAE/monkey oral gavage, monkeys 117,118,119,AVG
[3] = 12.5 mg FAE/mL in 15% Ethanol, 30% PG, 10% Glycerin, 50 mg FAE oral gavage, monkeys 117,118,119,AVG
[4] = 12.5 mg FAE/mL in 40% PG, 20% Glycerin, 0.25% Tween80, 0.2% Povidone K15, 50 mg FAE oral gavage, monkeys 186,116,120,AVG
[5] = 12.5 mg FAE/mL in 40% PG, 20% Glycerin, 1% TPGS, 0.25% Tween80, 0.2% Povidone K15, 50 mg FAE/monkey oral gavage, monkeys 117,118,119,AVG
[6] = 12.5 mg FAE/mL in 40% PG, 20% glycerin, 5% Vitamin E TPGS, 0.25% Tween80, 0.20% Plasdone C15, 10 mM sodium phosphate pH 8.0, 200 mg/monkey (50.0 mg/kg) oral gavage, monkeys 181,182,AVG
[7] = 50 mg FAE/mL in 40% EtOH:40% PG:20% Glycerol, 50 mg FAE/monkey oral gavage, monkeys 117,118,119,AVG
[8] = male, cynomolgus monkey, in vivo, 50 mg/kg, pH 8
[9] = male, cynomolgus monkey, in vivo, po, 50 mg FAE/monkey

C=C(C)[C@@H]1CC[C@]2(C(=O)O)CC[C@]3(C)[C@H](CC[C@@H]4[C@@]5(C)CC[C@H](OC(=O)CC(C)(C)C(=O)O)C(C)(C)[C@@H]5CC[C@]43C)[C@@H]12 [Bevirimat, 3-O-(3′,3′-dimethylsuccinyl)betulinic acid]
AUCall [1]: 392.275 µg·h/mL | Cmax [1]: 56.4 µg/mL | Dnzed AUCall [1]: 38150 ng·h/mL/mg/kg | t1/2 [1]: 7.0 h and 11.4 h and 9.4 h | t1/2 (12.5 mg FAE/mL in 15% EtOH:0.5% TPGS:15% PG:5% Glycerin, 50 mg FAE/monkey oral gavage, monkeys 117,118,119,AVG): 11.3 h and 11.5 h and 11.6 h | AUCall [2]: 270.194 µg·h/mL and 344.629 µg·h/mL and 367.461 µg·h/mL | Cmax [2]: 65.6 µg/mL and 52.8 µg/mL and 56.567 µg/mL | t1/2 [2]: 14.5 h and 8.7 h and 11.8 h | Cmax [3]: 57.2 µg/mL and 97.4 µg/mL and 72.9 µg/mL | t1/2 [3]: 10.4 h and 9.0 h and 9.4 h | Dnzed AUCall [4]: 17281 ng·h/mL/mg/kg and 15596 ng·h/mL/mg/kg | t1/2 [4]: 8.1 h and 10.2 h and 8.7 h | t1/2 (12.5 mg FAE/mL in 40% PG, 20% Glycerin, 1% TPGS, 0.25% Tween80, 50 mg FAE/monkey oral gavage, monkeys 186,116,120,AVG): 9.9 h and 11.1 h and 10.3 h | Cmax [5]: 84.8 µg/mL and 77.2 µg/mL and 85.1 µg/mL | t1/2 [5]: 7.9 h and 6.4 h and 8.2 h | AUCall [6]: 1681.058 µg·h/mL | Cmax [6]: 174 µg/mL and 199.5 µg/mL | Dnzed AUCall [6]: 33621 ng·h/mL/mg/kg | t1/2 [6]: 10.2 h and 9.2 h | t1/2 (25 mg/mL in 30% EtOH:1% TPGS:30% PG:10% Glycerin, 50 mg FAE/monkey oral gavage, monkeys 117,118,119,AVG): 17.8 h and 9.0 h and 12.5 h | Cmax [7]: 24.9 µg/mL and 33.1 µg/mL and 27.933 µg/mL | t1/2 [7]: 7.8 h and 8.5 h | t1/2 (50 mg FAE/mL in 40% PG:20% Glycerin:1% TPGS:5% Tween 80 in SWFI, 50 mg FAE/monkey oral gavage, monkeys 117,118,119,AVG): 11.8 h and 14.6 h and 12.8 h | t1/2 (10% HPβCD, 50 mg FAE/monkey oral gavage, monkeys 117,118,119,AVG): 10.2 h and 11.0 h and 10.4 h | bioavailability (male, cynomolgus monkey, in vivo): ~55% | concentration at 1 hr [8]: 108 µg/mL | concentration at 2 hr [8]: 225 µg/mL | concentration at 4 hr [8]: 163 µg/mL | concentration at 6 hr [8]: 107 µg/mL | concentration at 8 hr [8]: 70.3 µg/mL | concentration at 12 hr [8]: 47.5 µg/mL | concentration at 0.25 hr (male, cynomolgus monkey, in vivo, po, 50 mg FAE): 3.06 µg/mL | concentration at 0.25 hr (male, cynomolgus monkey, in vivo, po, 50 mg FAE, Plasma concentration, 0.25 hr, 12.5 mg FAE/mL in 15% Ethanol, 30% PG, 10% Glycerin, 50 mg FAE oral gavage, monkeys 117,118,119,AVG, BLOQ=below 50 ng/mL): 0.066 µg/mL | concentration at 4 hr (male, cynomolgus monkey, in vivo, po, 50 mg FAE, Plasma concentration, 4.0 hr, 12.5 mg FAE/mL in 15% Ethanol, 30% PG, 10% Glycerin, 50 mg FAE oral gavage, monkeys 117,118,119,AVG): 46 µg/mL | concentration at 6 hr (male, cynomolgus monkey, in vivo, po, 50 mg FAE, Plasma concentration, 6.0 hr, 12.5 mg FAE/mL in 15% Ethanol, 30% PG, 10% Glycerin, 50 mg FAE oral gavage, monkeys 117,118,119,AVG): 44.7 µg/mL | concentration at 24 hr (male, cynomolgus monkey, in vivo, po, 50 mg FAE, Plasma concentration, 24 hr, 12.5 mg FAE/mL in 40% PG, 20% Glycerin, 0.25% Tween80, 0.2% Povidone K15, 50 mg FAE oral gavage, monkeys 186,116,120,AVG): 0.434 µg/mL | concentration at 48 hr (male, cynomolgus monkey, in vivo, po, 50 mg FAE, Plasma concentration, 48 hr, 12.5 mg FAE/mL in 40% PG, 20% Glycerin, 0.25% Tween80, 0.2% Povidone K15, 50 mg FAE oral gavage, monkeys 186,116,120,AVG): 0.0603 µg/mL | concentration at 72 hr (male, cynomolgus monkey, in vivo, po, 50 mg FAE, Plasma concentration, 72 hr, 12.5 mg FAE/mL in 15% Ethanol, 30% PG, 10% Glycerin, 50 mg FAE oral gavage, monkeys 117,118,119,AVG, BLOQ=below 50 ng/mL): 0.179 µg/mL | concentration at 1 hr [9]: 85.2 µg/mL | concentration at 2 hr [9]: 93.3 µg/mL | concentration at 4 hr [9]: 62.7 µg/mL | concentration at 0.25 hr (male, cynomolgus monkey, in vivo, po, 50 mg FAE/monkey, Plasma concentration, 0.25 hr, 25 mg/mL in 30% EtOH:1% TPGS:30% PG:10% Glycerin, 50 mg FAE/monkey oral gavage, monkeys 117,118,119,AVG, BLOQ=below 50 ng/mL): 0.147 µg/mL | concentration at 0.25 hr (male, cynomolgus monkey, in vivo, po, 50 mg FAE/monkey, Plasma concentration, 0.25 hr, 50 mg FAE/mL in 40% EtOH:40% PG:20% Glycerol, 50 mg FAE/monkey oral gavage, monkeys 117,118,119,AVG, BLOQ=below 50 ng/mL): 0.0755 µg/mL | concentration at 0.5 hr (male, cynomolgus monkey, in vivo, po, 50 mg FAE/monkey, Plasma concentration, 0.50 hr, 12.5 mg FAE/mL in 40% PG, 20% Glycerin, 1% TPGS, 0.25% Tween80, 0.2% NaCMC, 50 mg FAE/monkey oral gavage, monkeys 117,118,119,AVG): 12.5 µg/mL | concentration at 1 hr (male, cynomolgus monkey, in vivo, po, 50 mg FAE/monkey, Plasma concentration, 1.0 hr, 12.5 mg FAE/mL in 10% HPβCD, 50 mg FAE/monkey oral gavage, monkeys 186,116,120,AVG): 56.4 µg/mL | concentration at 1 hr (male, cynomolgus monkey, in vivo, po, 50 mg FAE/monkey, Plasma concentration, 1.0 hr, 12.5 mg FAE/mL in 40% PG, 20% Glycerin, 1% TPGS, 0.25% Tween80, 50 mg FAE/monkey oral gavage, monkeys 186,116,120,AVG): 65.5 µg/mL | concentration at 1 hr (male, cynomolgus monkey, in vivo, po, 50 mg FAE/monkey, Plasma concentration, 1.0 hr, 50 mg FAE/mL in 40% EtOH:40% PG:20% Glycerol, 50 mg FAE/monkey oral gavage, monkeys 117,118,119,AVG): 19.2 µg/mL

Reference: patent US20100216751A1 (priority 2007, published 2010)
